From patent US11247998B2, “Piperazine heteroaryl derivative, preparation method therefor and use of same in medicine” (priority 2017, dated 2022) come the findings set out here.

Some results are limits rather than exact numbers.

A short description of data set [1]: Effect on in vitro proliferation of HepG2 cells (CellTiter-Glo). The format is cell-based. As to conditions: human; HepG2 cells, 72 hours, CellTiter-Glo. On the procedure:
Test Example 2. Effect of the Compound of the Present Invention on In Vitro Proliferation of HepG2 Cells
HepG2 cells in logarithmic growth phase were taken and digested with trypsin to prepare a cell suspension, which was incubated in a 96-well plate (transparent bottom white 96-well plate, PerkinElmer) at 6,000 cells/well, at 5% carbon dioxide, 37° C. for 16-20 hours. On Day 2, the compound was dissolved in pure DMSO at a concentration of 20 mM. The compound was diluted in 3-fold concentration gradient using an automatic pipetting station (Bravo), 8 concentration points for each compound, and the control well was DMSO. The compound formulated in DMSO at each concentration point was diluted 200-fold with EMEM (containing 10% FBS) medium. The cell culture plate inoculated on Day 1 was taken out. The medium in the wells was removed by a negative pressure suction device, and the formulated medium containing the compound at each concentration was added respectively to each well at 100 μl/well. The plate was incubated at 37° C. for 72 hours. On Day 5, the 96-well cell culture plate was taken out, and freshly formulated CellTiter Glo was added to each well at 100 μl/well. The 96-well plate was left to stand for 5-10 minutes, the bottom was then sealed with a white bottom sealing film (PerkinElmer). The plate was placed in the microplate reader to measure the luminescence signal. The CC50 value of the compound was calculated with Graphpad Prism software according to each concentration of the compound and the corresponding proliferation inhibition signal value.
The inhibition effect of the compound of the present invention on in vitro proliferation of HepG2 cells was determined by the above experiment.

In data set [2] the test system is HBV DNA replication in HepG2.2.15 cells. Nature of the data set: In vitro anti-HBV activity test (quantitative assay of intracellular HBV DNA), HepG2.2.15 cells, quantitative PCR. The format is cell-based, hepatitis B virus (HBV). The following applies: Hepatitis B virus, HBV DNA by quantitative PCR; for EC50: compound treatment Day 2 to Day 8; for Emax: read-out: Emax (effect value of the compound to maximally inhibit HBV DNA replication). On the procedure:
In vitro anti-HBV activity test of the compound of the present invention (quantitative assay of intracellular HBV DNA)
HepG2.2.15 cell is a stable expression cell line that has integrated HBV genome.
Virus particles containing HBV DNA can be synthesized by replication, transcription and encapsidation in the cells, and then secreted. In this study, the quantitative analysis of HBV DNA produced by HepG2.2.15 in vitro proliferation was carried out by quantitative PCR method, thereby determining the activity of the compound of the present invention on inhibiting the HBV DNA replication by inhibiting the assembly of HBV capsid protein.
HepG2.2.15 cells were cultured in DMEM/high glucose medium (10% FBS, […] G418) and passaged every three days. On the day of the experiment, a cell suspension was prepared with fresh cell culture medium, and incubated in a 96-well plate (Corning, #3599) at 40,000 cells/well, at 5% carbon dioxide, 37° C. On Day 2, the compound was dissolved in pure DMSO at a concentration of 20 mM, and then the first concentration of 2 mM was formulated with DMSO, and diluted in 4-fold concentration gradient to 8 concentrations. A control well was added with 90 μl of DMSO. The compound solution was diluted 200-fold with DMEM/high glucose medium. The cell culture plate inoculated on Day 1 was taken out. The medium in the wells was removed by a negative pressure suction device, and the formulated medium containing the compound at each concentration was added respectively to each well at 200 μl/well. The plate was incubated at 37° C. for 72 hours. On Day 5, the medium of the cultured cells was replaced with fresh medium containing the same compound in the same way as Day 2, and then the plate was incubated at 37° C. for 72 hours. On Day 8, the cell culture plate was taken out, centrifuged at 300 g for 3 minutes, and the culture supernatant was collected at 200 μl/well. HBV DNA was extracted from the cell culture supernatant with Qiagen automatic DNA extraction device, and the specific method referred to the instructions of the reagents and instruments. Finally, the extracted DNA was eluted with DNA elution buffer at 100 μl/well. The extracted DNA was subjected to quantitative PCR analysis of HBV DNA using Hepatitis B virus nucleic acid quantitative detection kit (Triplex International Biosciences Co., Ltd.), and the specific method referred to the instruction of the kit. The quantitative standard curve was obtained with the standard sample provided in the kit, and the experiments were performed in parallel. Quantitative conversion of each sample was carried out according to the standard curve. Finally, the EC50 value of the compound was calculated with Graphpad Prism software according to each concentration of the compound and the corresponding DNA value.
The in vitro activity of the compound of the present invention on inhibiting the HBV DNA replication by inhibiting the assembly of HBV capsid protein was determined by the above experiment.

Data set [3] is described as follows: Pharmacokinetics assay in rats after intragastrical administration (LC/MS/MS of plasma). The format is in vivo. As to conditions: both sexes, rat, plasma, po, SD rats, 2 mg/kg. On the procedure:
Pharmacokinetics assay of the compound of the present invention
Rats were used as test animals. The drug concentration in plasma at different time points was determined by LC/MS/MS method after intragastrical administration of the compound of Example 1, the compound of Example 2, the compound of Example 4, the compound of Example 6, the compound of Example 7, the compound of Example 11, the compound of Example 39, the compound of Example 42, the compound of Example 44, the compound of Example 45 and the compound of Example 47 to rats. The pharmacokinetic behavior and property of the compound of the present invention were studied and evaluated in rats.
44 Healthy adult SD rats (half male and half female, 4 rats/group) were purchased from Shanghai Jiesijie Laboratory Animal Co., LTD, with Certificate No.: SCXK (Shanghai) 2013-0006.
A certain amount of the test compound was weighed, and added with 5% by volume of DMSO, 5% by volume of tween 80 and 90% by volume of normal saline to prepare a 0.2 mg/mL colorless, clear and transparent solution.
After an overnight fast, SD rats were administrated intragastrically with the test compound at an administration dose of 2.0 mg/kg and an administration volume of 10.0 mL/kg.
The rats were intragastrically administrated the compound of Example 1, the compound of Example 2, the compound of Example 4, the compound of Example 6, the compound of Example 7, the compound of Example 11, the compound of Example 39, the compound of Example 42, the compound of Example 44, the compound of Example 45 and the compound of Example 47. 0.1 ml of blood was taken from the orbit before administration and at 0.5, 1.0, 2.0, 4.0, 6.0, 8.0, 11.0 and 24.0 hours after administration. The samples were stored in heparinized tubes, and centrifuged for 10 minutes at 3500 rpm to separate the blood plasma. The plasma samples were stored at −20° C. The rats were fed two hours after administration.
The content of the test compound in the plasma of rats after intragastrical administration of the test compound at different concentrations was determined: 25 μL of rat plasma at each time after administration was taken, added with 40 μL of the internal standard solution of camptothecin (100 ng/mL) and 200 μL of acetonitrile, vortex-mixed for 5 minutes, and centrifuged for 10 minutes (4000 rpm). 0.2 μL of the supernatant was taken from the plasma samples for LC/MS/MS analysis.

Consider `C[C@H]1Cn2cnc(C(=O)NC3(C)CCC3)c2CN1C(=O)Nc1ccc(F)c(C#N)c1` [Example 46, (S)—N^7-(3-Cyano-4-fluorophenyl)-6-methyl-N^1-(1-methylcyclobutyl)-5,6-dihydroimidazo[1,5-α]pyrazine-1,7(8H)-dicarboxamide], for which, in data set [1], the CC50 at 72 h is greater than 100000 nM. In addition, in data set [2], the EC50 is 65 nM and the Emax is 97%.
Taken in the same sequence, the figures for `C[C@H]1Cn2ncc(C(=O)N[C@H](C)C(F)(F)F)c2CN1C(=O)Nc1cc(F)nc(F)c1` [Example 16, (S)—N^5-(2,6-Difluoropyridin-4-yl)-6-methyl-N^3-((R)-1,1,1-trifluoropropan-2-yl)-6,7-dihydropyrazolo[1,5-α]pyrazine-3,5(4H)-dicarboxamide] were greater than 100000 nM, 50 nM and 100%.
Taken in the same sequence, the figures for `Cc1cc(NC(=O)N2Cc3c(C(=O)N[C@H](C)C(F)(F)F)ncn3C[C@@H]2C)ccc1F` [Example 58, (S)—N^7-(4-Fluoro-3-methylphenyl)-6-methyl-N^1-((R)-1,1,1-trifluoropropan-2-yl)-5,6-dihydroimidazo[1,5-α]pyrazine-1,7(8H)-dicarboxamide] were greater than 100000 nM, 15 nM and 100%.
For `C[C@H]1Cn2ncc(C(=O)NC(C)(C)C)c2CN1C(=O)Nc1cc(F)c(F)c(F)c1` [Example 10, (S)—N^3-(Tert-butyl)-6-methyl-N^5-(3,4,5-trifluorophenyl)-6,7-dihydropyrazolo[1,5-α]pyrazine-3,5(4H)-dicarboxamide], in that order: greater than 100000 nM, 29 nM and 100%.
As for `C[C@H]1Cn2ncc(C(=O)NC(C)(C)C)c2CN1C(=O)Nc1ccc(F)c(F)c1` [Example 8, (S)—N^3-(Tert-butyl)-N^5-(3,4-difluorophenyl)-6-methyl-6,7-dihydropyrazolo[1,5-α]pyrazine-3,5(4H)-dicarboxamide], the CC50 at 72 h in data set [1] was greater than 100000 nM. For the same compound, in data set [2], the response was half-maximal at 15 nM (EC50) and the Emax was determined as 100%.
Taken in the same sequence, the figures for `C[C@@H](NC(=O)c1cnn2c1CN(C(=O)Nc1ccc(F)c(C#N)c1)CC2)C(F)(F)F` [Example 9, (R)—N^5-(3-Cyano-4-fluorophenyl)-N^3-(1,1,1-trifluoropropan-2-yl)-6,7-dihydropyrazolo[1,5-α]pyrazine-3,5(4H)-dicarboxamide] were greater than 100000 nM, 28 nM and 100%.
`C[C@@H](NC(=O)c1ncn2c1CN(C(=O)Nc1cc(F)c(F)c(F)c1)CC2)C(F)(F)F` [Example 1, (R)—N^7-(3,4,5-Trifluorophenyl)-N^1-(1,1,1-trifluoropropan-2-yl)-5,6-dihydroimidazo[1,5-α]pyrazine-1,7(8H)-dicarboxamide]: the Vd/F in data set [3] (read-out: Apparent distribution volume Vz/F) was 2.36 ± 0.245 L/kg. In addition, the AUC in data set [3] (read-out: Area under curve AUC) amounted to 14400 ± 3010 ng·h/mL. In data set [3] (read-out: Bioavailability (%) F %), the bioavailability worked out at 119%. Besides, in data set [3] (read-out: Clearance CLz/F), the CL/F stood at 2.39 ± 0.5 mL/min/kg. Besides, the half-life in data set [3] (read-out: Half-life T1/2 (converted)) is 11.7 ± 2.3 h. In addition, the Cmax in data set [3] (read-out: Plasma concentration Cmax) is 640 ± 102 ng/mL. The MRT in data set [3] (read-out: Residence time MRT) was 17.4 ± 3 h.
`C[C@H]1Cn2ncc(C(=O)N[C@H](C)C(F)(F)F)c2CN1C(=O)Nc1ccc(F)c(C#N)c1` [Example 15, (S)—N^5-(3-Cyano-4-fluorophenyl)-6-methyl-N^3-((R)-1,1,1-trifluoropropan-2-yl)-6,7-dihydropyrazolo[1,5-α]pyrazine-3,5(4H)-dicarboxamide]: the CC50 at 72 h in data set [1] is greater than 100000 nM. In data set [2], the EC50 was found to be 29 nM and the Emax stood at 100%.
Taken in the same sequence, the figures for `Cc1cc(NC(=O)N2Cc3c(C(=O)N[C@H](C)C(F)(F)F)nnn3C[C@@H]2C)ccc1F` [Example 40, (S)—N^5-(4-Fluoro-3-methylphenyl)-6-methyl-N^3-((R)-1,1,1-trifluoropropan-2-yl)-6,7-dihydro-[1,2,3]triazolo[1,5-α]pyrazine-3,5(4H)-dicarboxamide] were greater than 100000 nM, 20 nM and 100%.
`C[C@H]1Cn2cnc(C(=O)NC3(C)CC3)c2CN1C(=O)Nc1ccc(F)c(C#N)c1` [Example 48, (S)—N^7-(3-Cyano-4-fluorophenyl)-6-methyl-N^1-(1-methylcyclopropyl)-5,6-dihydroimidazo[1,5-α]pyrazine-1,7(8H)-dicarboxamide] returned a CC50 at 72 h in data set [1] greater than 100000 nM. Also, in data set [2], a half-maximal effect (EC50) was put at 93 nM and the Emax is 98%.
`C[C@H]1Cn2cnc(C(=O)N3CCCC3)c2CN1C(=O)Nc1ccc(F)c(F)c1` [Example 59, (S)—N-(3,4-Difluorophenyl)-6-methyl-1-(pyrrolidine-1-carbonyl)-5,6-dihydroimidazo[1,5-α]pyrazine-7(8H)-carboxamide, reference compound]: in data set [2], the EC50 stood at 5270 nM and the Emax was 90%.
